Publication PMC2873402, “Discovery of High-Affinity Protein Binding Ligands – Backwards” (PLoS ONE, 2010)
Like-named read-outs stand apart in the source and are kept apart here. Bridge positions count the residues as written; N and C are the ends. Ends that are not written are not given here. I, II: the chains in the order shown. * marks the point of attachment. StBu = CC(C)(C)S*

Assays:
[1] = system: AKT3; experiment: IP of AKT isoforms spiked into A549 lysate: AKT3; assay type: binding; conditions: 250 ng of each isoform in 500 µg A549 lysate, Western Blot
Experimental: (§1) This apparent specificity was investigated further by performing an IP using 250 ng of each isoform of AKT spiked into 500 µg of A-549 cell lysate.
(§2) For all IP experiments, either a 1 µM or 250 nM solution of biotin-conjugated synbody was captured on 20 µL of streptavidin coated paramagnetic M-280 Dynabeads (Life Technologies) according to the manufacturers protocol. Synbody coated beads were washed five times with 1 mL of 100 mM phosphate buffered saline containing 0.05% Tween-20 (PBST) and incubated overnight at 4°C with shaking in the desired amount of target protein in A549 cell lysate. For Kd determination experiments, serial dilutions of AKT1 or ABL1 were prepared in binding buffer. After binding, beads were washed five times with 1 mL of PBST and heated at 70°C in 20 µL of 1× LDS loading buffer (Invitrogen) for 10 minutes. The samples were analyzed by SDS-PAGE gel with Western Blot detection using the appropriate antibody and imaged on a GE Healthcare Typhoon Trio.

[2] = molecular target: T1, AKT1 (Homo sapiens, UniProt P31749); experiment: SPR determination of Kd / binding kinetics on AKT1; set-up: purchased Life Technologies
T1 sequence (P31749 whole entry): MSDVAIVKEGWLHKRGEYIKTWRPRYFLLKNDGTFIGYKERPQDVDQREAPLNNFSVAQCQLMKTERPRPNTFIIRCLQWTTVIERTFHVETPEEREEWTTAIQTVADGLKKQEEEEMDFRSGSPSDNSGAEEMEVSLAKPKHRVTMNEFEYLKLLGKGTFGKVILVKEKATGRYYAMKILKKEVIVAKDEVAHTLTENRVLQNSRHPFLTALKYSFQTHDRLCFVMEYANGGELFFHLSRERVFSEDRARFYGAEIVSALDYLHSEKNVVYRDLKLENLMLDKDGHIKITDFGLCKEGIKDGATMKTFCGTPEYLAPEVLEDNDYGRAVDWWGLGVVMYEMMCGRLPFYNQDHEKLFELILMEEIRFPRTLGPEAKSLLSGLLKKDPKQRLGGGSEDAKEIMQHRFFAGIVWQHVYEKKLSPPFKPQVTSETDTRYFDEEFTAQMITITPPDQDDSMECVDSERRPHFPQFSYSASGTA
Experimental: To a solution of AKT1 (25µg, 4.16×10^−10 moles, 1.0 equiv.) in 50mM Na2CO3 in 150mM NaCl, pH 9.0 (200 µl), was added a solution of NHS-LC-LC-Biotin (Thermo Scientific) (9.4 µl, 8.32×10^−10 moles, 2.0 equiv.) in DMSO. The reaction was kept on ice at 0°C with frequent agitation for 2 hours, before the mixture was transferred to a 10 kDa Millipore Microcon filter and diluted with HBS-N (200 µl). The excess biotin was removed by spinning the filter at 12,000 G until the volume on top of the filter had been reduced to 0.25 the original volume. The retentate was washed with an additional 200 µl of HBS-N and spun for a further 15 minutes. The filter was then flipped over and the protein recovered (15 µg, 60%). After filtration, an appropriate volume of 10× HBS-N was added to the sample to increase the HBS-N concentration to a 1× equivalent.
Determination of the binding kinetics of the synbody on AKT1 was performed on a Biacore A-100. The series S sensor chip CM5, amine coupling reagents and HBS-EP were obtained from GE Healthcare. A standard amine immobilization protocol was performed at 25°C using NaHCO3 (10mM in 150mM NaCl, pH 4.5) as the immobilization buffer. Spots 1,2 and 3 on each of the four flow cells of the CM-5 dextran chip were activated by a 10 minute injection of a freshly prepared 1∶1 solution of 40 0mM EDC : 100 mM NHS in water. The NHS-carboxy groups of spot 1 of the dextran surface were treated with a solution of neutravidin (50 µg/ml) in sodium acetate (pH 5.0) for 8 mins at a flow rate of 10 µl/min. Any residual active sites were then quenched by a 5 min pulse of ethylene diamine (1M, pH 8.5). Similarly neutravidin was coupled to spots 2 and 3 via a 12 and 16 min injection cycle respectively, followed by quenching. An additionally 7 min injection of ethylene diamine was then pulsed over spots 1–3 to ensure no activated sites remained. […]
For high-resolution kinetics, biotin-tagged AKT1 was captured in multiple spot densities with Rmax's ranging from 20–100 RUs. […] Association and dissociation were monitored for 3 and 16 min, respectively. […]

[3] = molecular target: T1, AKT1; experiment: IP of AKT isoforms spiked into A549 lysate: AKT1; assay type: binding; set-up: purchased Life Technologies; conditions: 250 ng of each isoform in 500 µg A549 lysate, Western Blot
Experimental: as §1, §2

kon ([2]; Biacore A-100, biotin-labeled AKT1 on neutravidin, synbody 25 nM to 0.78 nM, 1:1 binding model, read-out: association rate, ka): 200000 M⁻¹ s⁻¹
koff ([2]; Biacore A-100, biotin-labeled AKT1 on neutravidin, synbody 25 nM to 0.78 nM, 1:1 binding model, read-out: dissociation rate, kd): 0.0003 s⁻¹
koff ([2]; Figure 3A, 12.5 and 6.25 nM synbody, Biacore A-100, 1:1 binding model, read-out: koff): 0.000295 s⁻¹
IP of AKT1 (isoform selectivity) [3]: selectively precipitates AKT1
Substance: I: AHKVVPQRQIRHAYNRYGSGKC(StBu)-NH2 / II: FRGWAHIFFGPHVIYRGGSG (amide I:21-II:C) [synbody]
IP of AKT3 (isoform selectivity) [1]: relatively little
